Square brackets hold non-standard residues; d marks the D form. Ends that are not written are not given here. Peptide text beside a SMILES is read from it.
Tests used:
LPS = LPS toxicity and survival in mice bearing Meth A ascites tumours (Example 7); assay type: in vivo; conditions: 100 µg LPS subcutaneously with 1mg analogue
Protocol: Mice bearing Meth A ascites tumours were given 100 µg LPS subcutaneously with either bovine serum albumin (BSA) or peptide T analogue (504 or 505, 1mg). The number of animals showing signs of LPS toxicity (diarrhoea, exudate from the eyes and general level of activity) in each group was recorded at 19, 24 and 41 hours after injection. At the completion of the experiment the number of surviving animals was recorded (see Table II below) and the survivors bled for later determination of TNF, IL-1, IL-6 and RNI levels.

human neutrophils [1] = experiment: TNF-induced neutrophil chemiluminescence (lucigenin-dependent); assay type: cell-based; conditions: 500-1000U/ml TNF
Protocol: (§1) Neutrophils. Neutrophils were isolated from whole blood from healthy blood donors. Separation was achieved by the rapid-single-step method of centrifugation of whole blood on FICOLL-HYPAQUE™. These were >99% viable and usually >98% pure.
(§2) Peptides and TNF. TNF was a recombinant product produced in E. coli. Peptide T and analogue 505 (D-Ser-Ser-D-Thr-Thr-D-Thr-Thr-Tyr-D-Thr) were resuspended in Hank's Balanced Salt Solution (HBSS).
(§3) To 100µl of 500-1000U/ml of TNF was added 10µl of peptide and after 5 min 100µl of 1x10^7 neutrophils/ml was added. The cells further incubated at 37°C/20 min and then tested for chemiluminescence activity. In some cases an agonist such as fMLP (10^-7M) was added. Chemiluminescence was measured in a luminometer (LKB). The results for Peptide T are presented in Figure 12 as peak rate of CL release. Lucigenin-dependent chemiluminescence was measured: this represents superoxide measurement. In another set of experiments the effects of analogue 505 on the LPS-induced neutrophil chemiluminescence were examined. In this case the LPS was essentially substituted for the TNF. The concentration of LPS was 0.005µg/ml.

human neutrophils [2] = experiment: LPS-induced neutrophil chemiluminescence; assay type: cell-based; conditions: LPS 0.005µg/ml
Protocol: as §1, §2, §3

[3] = tested on: mouse foetal hippocampal neurons; conditions: cultures of mouse foetal hippocampal neurons; cited from earlier work
[4] = spinal administration to rats; tail-flick latency and tail-shock induced vocalisation; cited from earlier work

Molecule	% mice surviving 41 hours (LPS) [%]	% mice with diarrhoea at 19 hrs (LPS) [%]	% mice with exudate at 19 hrs (LPS) [%]	TNF priming and activation of human neutrophils (human neutrophils [1])	LPS activation of human neutrophils (human neutrophils [2])	gp120-induced neurotoxicity [3]	analgesia [4]
C[C@H](O)[C@@H](NC(=O)[C@H](Cc1ccc(O)cc1)NC(=O)[C@H](CC(N)=O)NC(=O)[C@H](NC(=O)[C@@H](NC(=O)[C@H](NC(=O)[C@H](CO)NC(=O)[C@@H](C)N)[C@H](C)O)[C@@H](C)O)[C@H](C)O)C(N)=O [analogue 504]	100	40	60				
C[C@H](O)[C@@H](NC(=O)[C@H](Cc1ccc(O)cc1)NC(=O)[C@@H](NC(=O)[C@H](NC(=O)[C@@H](NC(=O)[C@H](NC(=O)[C@H](CO)NC(=O)[C@H](N)CO)[C@H](C)O)[C@@H](C)O)[C@H](C)O)[C@@H](C)O)C(N)=O [analogue 505, D-Ser-Ser-D-Thr-Thr-D-Thr-Thr-Tyr-D-Thr] (H-[dS]S[dT]T[dT]TY[dT]-NH2)	100	40	20	inhibits TNF priming and activation	inhibits LPS activation		
human vasoactive intestinal peptide (HSDAVFTDNYTRLRKQMAVKKYLNSILN; ends and bridges not checked; UniProt P01282 125-152, looked up) [VIP, reference compound]						completely eliminated	produced analgesia

From patent publication EP0960886B1, “Peptide T and related peptides in the treatment of inflammation, including multiple sclerosis” (priority 1992, dated 1993)
